The values below come from patent US20060018978A1, “Botanical compositions having hypoglycemic, hypolipidemic and antimicrobial activities for maintaining good health in normal person and diabetic patient” (priority 2004, published 2006).

Experiment [1] has as its system Klebsiella pneumoniae ATCC 10031. Nature of the experiment: Agar Diffusion Test, K. pneumoniae. The experiment is classed as cell-based. The following applies: mean ± S.E.M. The source says:
(§1) The dried plant extract is ground to fine powder and sieved to obtain uniform powder size and used for pharmaceutical preparation. […] (1991) Antibiotics in Laboratory Medicine, 3rd ed. The pathogenic microbes inhibited by the crude water extract of M. coromandelianum are Staphylococcus aureus, and Salmonella typhimurium. […] [table]

For experiment [2], the system named is Staphylococcus aureus ATCC 6538P. Nature of the experiment: Agar Diffusion Test, S. aureus. Format: cell-based. To be noted: mean ± S.E.M.
Description: as §1
On the technique in general: Agar diffusion results depend on both activity and mobility in agar.

The test system of experiment [3] is Salmonella typhimurium ATCC 14028. Nature of the experiment: Agar Diffusion Test, S. typhimurium. The experiment is classed as cell-based. To be noted: mean ± S.E.M.
Description: as §1

Experiment [4] deals with Escherichia coli ATCC 25922. Nature of the experiment: Agar Diffusion Test, E. coli. Format: cell-based. To be noted: mean ± S.E.M.
Description: as §1

Experiment [5] relates to Pseudomonas aeruginosa ATCC 9721. Nature of the experiment: Agar Diffusion Test, Ps. aeruginosa. The experiment is classed as cell-based. To be noted: mean ± S.E.M.
Description: as §1

Experiment [6] relates to streptozotocin-induced diabetic rats. Nature of the experiment: Biochemical analysis of serum in diabetic rats at day 14 after daily feeding. Format: in vivo, rat. The following applies: day 14, Standard: injected 5 IU/Kg/day, mean ± S.E.M.

As for Gentamicin, the “Diameter of inhibition zone” value in experiment [1] (10 μg/ml) was 16.9 ± 0.00 mm; in experiment [1] (20 μg/ml) it was 26.57 ± 0.28 mm; in experiment [2] (10 μg/ml), 10.00 ± 0.00 mm; in experiment [2] (20 μg/ml) it was 12.77 ± 0.14 mm; in experiment [3] (10 μg/ml), 14.28 ± 0.07 mm; in experiment [3] (20 μg/ml), 15.88 ± 0.141 mm. The “Diameter of inhibition zone” value is listed as 1.56 ± 0.07 mm in experiment [4] (10 μg/ml), 3.78 ± 0.07 mm in experiment [4] (20 μg/ml), 8.1 ± 0.00 mm in experiment [5] (10 μg/ml) and 12.8 ± 0.14 mm in experiment [5] (20 μg/ml).

In experiment [6], Insulin came in with a Cholesterol of 225.96 ± 5.51 mg %, a Glucose of 409.85 ± 12.52 mg % and a Triglycerides of 388.10 ± 61.85 mg %.
